These results are taken from patent US20090280511A1, “Methods for selecting candidate peptides presented on the surface of cancer cells following their binding to MHC class I molecules” (priority 2008, published 2009).

Holding throughout (assay type): cell-based, mouse
Assay [1] has as its system DC2.4 cells. The assay can be described thus: H-2Kb/pOV8 presentation after introducing proteins from outside into the cytosol with Chariot. The text has this:
The presentation of H-2Kb/pOV8 was examined when pOV8-YFP and YFP-pOV8 were introduced directly from the outside into the cytosol of DC2.4 cells.
Chariot was used as a reagent for forcibly making the cell membrane permeable to proteins in solution. It was again examined whether the presentation of pOV8 to H-2Kb was improved by fusion of pOV8 to the N-terminus of YFP as compared to fusion to the C-terminus. The cells were heated in the presence of any of YFP, pOV8-YFP, and YFP-pOV8, and the cell membrane permeabilizing agent Chariot. After washing the cells, a whole cell extract was prepared. After SDS-PAGE, Western blotting was performed using anti-YFP antibody (inset of FIG. 5). In addition, the expression of H-2Kb/pOV8 in these cells was measured using the 25D1.16 antibody.

The subject of assay [2] is DC2.4 cells. The assay can be described thus: Effect of inhibitors on H-2Kb/pOV8 expression after acid wash. As for the experimental part:
The DC2.4 cells were washed with acid 12 hours after transfection as in FIG. 3. The inhibitors were added at 0 hours (time 0). After 6 hours, the cells were recovered and examined.
The effect of various inhibitors on H-2Kb/pOV8 expression was examined. […] DC2.4 cells were transfected with DNA and after two hours, excess DNA was removed and the cells were further incubated for 12 hours. The cells were washed with acid and the indicated inhibitor was added at the same time. After six hours, H-2Kb/pOV8 expression was measured using 25D1.16 antibody.
Other inhibitors were examined as in the experiment described in [8] above.
The same system in [8] above was used to examine the effect of non-natural amino acids such as canavanine or azetidine. It is known that proteins incorporating non-natural amino acids are easily degraded since they fail to fold properly.

The test system of assay [3] is DC2.4 cells. The assay can be described thus: H-2Kb/pOV8 expression with or without IFNγ treatment, 25D1.16 antibody. As to conditions: DC2.4 cells expressing pOV8-YFP or YFP-pOV8. An excerpt: First, DC2.4 cells expressing pOV8-YFP and YFP-pOV8 were respectively treated with IFNγ and analyzed for H-2Kb/pOV8 expression using the 25D1.16 antibody.
Cellular IFNγ treatment causes an increase in class I antigen expression, and the enormous immunological significance of this phenomenon has been elucidated. The principle of N-terminal epitope dominance should play a significant role in direct antigen presentation in the living body, since it brings about an expression difference similar to that which results from the presence or absence of IFNγ treatment.
In the table, the term “whole” means the sum of H-2Kb/pOV8 expression for all cells expressing YFP. The term “at 10^2 fluorescent units” means H-2Kb/pOV8 expression for cells expressing 10^2 fluorescent units of YFP.

Residues, ends and D or L forms follow the SMILES beside them. *: point of attachment. Cbz = O=C(OCc1ccccc1)*

As for `CC(C)C[C@@H](C=O)NC(=O)[C@H](CC(C)C)NC(=O)[C@H](CC(C)C)NC(=O)OCc1ccccc1` [MG132] (Cbz-Leu-Leu-Leu-aldehyde), the “effect on antigen presentation of OVA administered with Chariot” value in the assay with DC2.4 cells [1] (OVA plus Chariot) is “reduced antigen presentation”.
With `COc1ccc(C[C@H]2NC[C@H](O)[C@H]2OC(C)=O)cc1` [anisomycin], in the assay on DC2.4 cells [2], the “effect of inhibitor on H-2Kb/pOV8 expression (presentation)” value is given as “inhibited”.
In the case of `C1CNC1` [azetidine], the “effect of inhibitor on H-2Kb/pOV8 expression (presentation)” value in the assay with DC2.4 cells [2] is on record as “no effect on antigen presentation”.
Still for that read-out and setting: the entry for `N=C(N)NOCC[C@H](N)C(=O)O` [canavanine] is “no variation”; for `CCN(CC)CCCC(C)Nc1ccnc2cc(Cl)ccc12` (centres unmarked) [chloroquine] it is “not inhibited”.
For the compound “IFNγ: cytokine used to treat cells; known to increase MHC class I antigen expression”, the “effect of IFNγ treatment on H-2Kb/pOV8 expression” value in the assay on DC2.4 cells [3] is on record as “increased”.
For the compound “OVA: full-length OVA antigen protein containing the pOV8 epitope”, in the assay with DC2.4 cells [1] (protein administered to cells in the presence of Chariot), the “presentation of H-2Kb/pOV8” value is listed as “slight presentation of H-2Kb/pOV8 was observed”.
Consider a-amanitin, for which, in the assay with DC2.4 cells [2], the “effect of inhibitor on H-2Kb/pOV8 expression (presentation)” value was “Recovery in H-2Kb/pOV8 expression was not observed”.
